Molecules are shown by their SMILES.

This assay has as its target IRAK4 kinase (Homo sapiens (Human), UniProt Q9NWZ3). As to the kind of experiment: IRAK4 kinase activity inhibition assay. The assay is classed as biochemical. Conditions: ADP-Glo kinase assay, 10 μM ATP, MBP substrate. Here is the method:
IRAK4 kinase (purchased from Life Technologies, Cat. No.: PR5612U) was diluted to 2 folds of the final concentration (the final concentration is […]) with reaction buffer (40 mM Tris-HC1, pH 7.5; 20 mM MgCl2; 0.1 mg/mL BSA; 1 mM DTT), and added to a 384-well plate at 5 μL/well. The test drugs were 10-fold serial diluted from 10 μM to set six concentration points and added to the test wells of the 384-well plate at 2.5 μL/well. After incubation for 10 min at 25° C., 10 μM of ATP and 0.1 μg/μL of an enzyme reaction substrate, myelin basic protein MBP (purchased from Signal Chem, Cat. No.: M42-51N) were added at 2.5 μL/well, and reacted at 25° C. for 60 minutes. After the reaction was completed, the kinase activity assay was performed using the ADP-Glo™ kinase assay kit (purchased from Promega, Cat. No.: V9102) according to the manufacture's instruction, i.e., 10 μL of ADP-Glo reaction reagent was first added and reacted at 25° C. for 40 minutes, 10 μL of the reaction mixture was taken and mixed with 10 μL of ADP-Glo detection reagent, and reacted at 25° C. for 30 minutes. The kinase activity was then detected, and the IC50 values of the test drugs were calculated.
Background: ADP-Glo first removes unused ATP, then detects ADP through luciferase.

Chain of IRAK4 kinase (Q9NWZ3 whole entry): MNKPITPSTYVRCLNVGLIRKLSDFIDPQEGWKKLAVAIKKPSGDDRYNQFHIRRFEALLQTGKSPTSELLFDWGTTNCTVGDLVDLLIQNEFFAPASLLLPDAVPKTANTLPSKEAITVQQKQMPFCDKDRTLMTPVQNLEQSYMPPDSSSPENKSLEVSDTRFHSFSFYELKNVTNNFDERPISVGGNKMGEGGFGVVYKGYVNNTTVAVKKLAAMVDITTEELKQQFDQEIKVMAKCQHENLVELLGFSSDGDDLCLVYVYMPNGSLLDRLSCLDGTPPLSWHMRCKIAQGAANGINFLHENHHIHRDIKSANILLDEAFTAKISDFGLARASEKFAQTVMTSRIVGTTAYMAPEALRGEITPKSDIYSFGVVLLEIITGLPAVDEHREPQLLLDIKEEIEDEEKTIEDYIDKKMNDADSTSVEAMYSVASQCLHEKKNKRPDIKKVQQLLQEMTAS

For `Cc1cc(Nc2nc(N(C)C3CCOCC3)c3c(ccn3-c3cnn(C)c3)n2)sn1` [Example 53, N^4-methyl-N^2-(3-methylisothiazol-5-yl)-5-(1-methyl-1H-pyrazol-4-yl)-N^4-(tetrahydropyran-4-yl)-5H-pyrrolo[3,2-d]pyrimidine-2,4-diamine], the half-inhibitory concentration (IC50) – broadly, the concentration that gives 50% inhibition – is 100 to 1000 nM.

Compound `Cc1cc(Nc2nc(OC(C)C)c3c(ccn3-c3cnn(C)c3)n2)sn1` [Example 54, [4-isopropoxy-5-(1-methyl-1H-pyrazol-4-yl)-5H-pyrrolo[3,2-d]pyrimidin-2-yl]-(3-methylisothiazol-5-yl)amine] displayed an IC50 not above 100 nM.

`COCCOc1nc(Nc2cc(C)ns2)nc2ccn(-c3cnn(C)c3)c12` [Example 55] registered a half-maximal inhibitory concentration (IC50) not above 100 nM.

Turning to `COCC(C)Oc1nc(Nc2cc(C)ns2)nc2ccn(-c3cnn(C)c3)c12` (centres unmarked) [Example 56], the IC50 was 100 to 1000 nM.

As for `COCCCOc1nc(Nc2cc(C)ns2)nc2ccn(-c3cnn(C)c3)c12` [Example 57], the half-inhibitory concentration (IC50) lay within 100 to 1000 nM.

`Cc1cc(Nc2nc(OCC3CCOC3)c3c(ccn3-c3cnn(C)c3)n2)sn1` (centres unmarked) [Example 58] yielded a half-inhibitory concentration (IC50) of 100 to 1000 nM.

In turn, `Cc1cc(Nc2nc(OCc3ccccn3)c3c(ccn3-c3cnn(C)c3)n2)sn1` [Example 59] had a half-maximal inhibitory concentration (IC50) of 100 to 1000 nM.

Compound `Cc1cc(Nc2nc(OC3CCC3)c3c(ccn3-c3cnn(C)c3)n2)sn1` [Example 60] returned an IC50 of 100 to 1000 nM.

For `Cc1cc(Nc2nc(OC3COC3)c3c(ccn3-c3cnn(C)c3)n2)sn1` [Example 61], the IC50 was not above 100 nM.

Compound `Cc1cc(Nc2nc(OC3CC(N4CCCCC4)C3)c3c(ccn3-c3cnn(C)c3)n2)sn1` (centres unmarked) [Example 62] yielded an IC50 not above 100 nM.

In turn, `Cc1cc(Nc2nc(OC3CCCC3)c3c(ccn3-c3cnn(C)c3)n2)sn1` [Example 63] had an IC50 of 100 to 1000 nM.

In turn, `Cc1cc(Nc2nc(O[C@@H]3CCOC3)c3c(ccn3-c3cnn(C)c3)n2)sn1` [Example 65] displayed an IC50 not above 100 nM.

Compound `Cc1cc(Nc2nc(OC3CCCCC3)c3c(ccn3-c3cnn(C)c3)n2)sn1` [Example 66] showed a half-maximal inhibitory concentration (IC50) not above 100 nM.

`Cc1cc(Nc2nc(OC3CCC(O)CC3)c3c(ccn3-c3cnn(C)c3)n2)sn1` (centres unmarked) [Example 67]: the IC50 lay within 100 to 1000 nM.

Consider `COC1CCC(Oc2nc(Nc3cc(C)ns3)nc3ccn(-c4cnn(C)c4)c23)CC1` (centres unmarked) [Example 68], for which the half-maximal inhibitory concentration (IC50) is 100 to 1000 nM.

Consider `Cc1cc(Nc2nc(OC3CCCN(C)C3)c3c(ccn3-c3cnn(C)c3)n2)sn1` (centres unmarked) [Example 69], for which the IC50 is 100 to 1000 nM.

Regarding `CC(=O)N1CCCC(Oc2nc(Nc3cc(C)ns3)nc3ccn(-c4cnn(C)c4)c23)C1` (centres unmarked) [Example 70], the half-inhibitory concentration (IC50) lay within 100 to 1000 nM.

`Cc1cc(Nc2nc(OC3CCNCC3)c3c(ccn3-c3cnn(C)c3)n2)sn1` [Example 71] displayed a half-maximal inhibitory concentration (IC50) of 100 to 1000 nM.

`Cc1cc(Nc2nc(OC3CCN(C)CC3)c3c(ccn3-c3cnn(C)c3)n2)sn1` [Example 72] had a 50% inhibitory concentration (IC50) of 100 to 1000 nM.

As to `CC(=O)N1CCC(Oc2nc(Nc3cc(C)ns3)nc3ccn(-c4cnn(C)c4)c23)CC1` [Example 73], the half-inhibitory concentration (IC50) was 100 to 1000 nM.

`Cc1cc(Nc2nc(OC3CCSCC3)c3c(ccn3-c3cnn(C)c3)n2)sn1` [Example 75] gave an IC50 of 100 to 1000 nM.

For `Cc1cc(Nc2nc(OC3CCS(=O)(=O)CC3)c3c(ccn3-c3cnn(C)c3)n2)sn1` [Example 76], the IC50 was in the range of 100 to 1000 nM.

Consider `Cn1cc(-n2ccc3nc(Nc4ccc[nH]4)nc(O[C@H]4CCOC4)c32)cn1` [Example 77], for which the concentration for half-maximal inhibition (IC50) is not above 100 nM.

`Cn1cc(-n2ccc3nc(Nc4cccs4)nc(O[C@H]4CCOC4)c32)cn1` [Example 78] had an IC50 not above 100 nM.

In the case of `Cn1cc(-n2ccc3nc(Nc4ccc(C#N)s4)nc(O[C@H]4CCOC4)c32)cn1` [Example 79], the half-inhibitory concentration (IC50) lay within 100 to 1000 nM.

As to `Cn1cc(-n2ccc3nc(Nc4cc(C#N)cs4)nc(O[C@H]4CCOC4)c32)cn1` [Example 80], the IC50 fell in the range of 100 to 1000 nM.

The compound `Cn1cc(-n2ccc3nc(Nc4ccsc4)nc(O[C@H]4CCOC4)c32)cn1` [Example 81] displayed a concentration for half-maximal inhibition (IC50) of 100 to 1000 nM.

Consider `Cc1cc(Nc2nc(O[C@H]3CCOC3)c3c(ccn3-c3cnn(C)c3)n2)cs1` [Example 82], for which the IC50 lay in the range of 100 to 1000 nM.

Compound `Cc1cc(Nc2nc(O[C@H]3CCOC3)c3c(ccn3-c3cnn(C)c3)n2)on1` [Example 83] came in with an IC50 of 100 to 1000 nM.

For `Cc1cc(Nc2nc(O[C@H]3CCOC3)c3c(ccn3-c3cnn(C)c3)n2)[nH]n1` [Example 84], the IC50 lay in the range of 100 to 1000 nM.

The compound `Cn1cc(-n2ccc3nc(Nc4csc5ccccc45)nc(O[C@H]4CCOC4)c32)cn1` [Example 85] came in with an IC50 of 1000 to 10000 nM.

`Cc1cc(Nc2nc(OC3CCOCC3)c3c(ccn3-c3ccn(C)c3)n2)sn1` [Example 86] gave a 50% inhibitory concentration (IC50) of 100 to 1000 nM.

The compound `Cc1cc(Nc2nc(O[C@H]3CCOC3)c3c(ccn3-c3ccoc3)n2)sn1` [Example 87] returned a concentration for half-maximal inhibition (IC50) not above 100 nM.

`Cc1cc(Nc2nc(OC3CCOCC3)c3c(ccn3-c3ccoc3)n2)sn1` [Example 88] returned a 50% inhibitory concentration (IC50) of 100 to 1000 nM.

As to `Cc1cc(Nc2nc(OC3CCOCC3)c3c(ccn3-c3ccsc3)n2)sn1` [Example 89], the IC50 fell in the range of 100 to 1000 nM.

With `CCn1cc(-n2ccc3nc(Nc4cc(C)ns4)nc(OC4CCOCC4)c32)cn1` [Example 90], the half-maximal inhibitory concentration (IC50) fell in the range of 100 to 1000 nM.

On to `COCCn1cc(-n2ccc3nc(Nc4cc(C)ns4)nc(OC4CCOCC4)c32)cn1` [Example 91], for which the 50% inhibitory concentration (IC50) fell in the range of 100 to 1000 nM.

On to `Cc1cc(Nc2nc(OC3CCOCC3)c3c(ccn3-c3ccccc3)n2)sn1` [Example 92], for which the 50% inhibitory concentration (IC50) fell in the range of 100 to 1000 nM.

As to `COc1ccccc1-n1ccc2nc(Nc3cc(C)ns3)nc(OC3CCOCC3)c21` [Example 93], the IC50 lay within 1000 to 10000 nM.

The compound `COc1cccc(-n2ccc3nc(Nc4cc(C)ns4)nc(OC4CCOCC4)c32)c1` [Example 94] showed an IC50 of 1000 to 10000 nM.

With `COc1ccc(-n2ccc3nc(Nc4cc(C)ns4)nc(OC4CCOCC4)c32)cc1` [Example 95], the half-maximal inhibitory concentration (IC50) was in the range of 1000 to 10000 nM.

For the compound `Cc1cc(Nc2nc(OC3CCOCC3)c3c(ccn3-c3cccc(N(C)C)c3)n2)sn1` [Example 96], the IC50 lay in the range of 1000 to 10000 nM.

Take `Cc1cc(Nc2nc(OC3CCOCC3)c3c(ccn3-c3ccncc3)n2)sn1` [Example 97]: the IC50 was in the range of 100 to 1000 nM.

`Cc1cc(Nc2nc(OC3CCOCC3)c3c(ccn3-c3cccnc3)n2)sn1` [Example 98]: the IC50 is 100 to 1000 nM.

In turn, `COc1cncc(-n2ccc3nc(Nc4cc(C)ns4)nc(OC4CCOCC4)c32)c1` [Example 99] came in with a half-maximal inhibitory concentration (IC50) of 100 to 1000 nM.

Turning to `Cc1cc(Nc2nc(O[C@H]3CCOC3)c3c(ccn3-c3ccncc3)n2)sn1` [Example 100], the IC50 lay in the range of 100 to 1000 nM.

`COc1cc(-n2ccc3nc(Nc4cc(C)ns4)nc(OC4CCOCC4)c32)ccn1` [Example 101] yielded an IC50 of 100 to 1000 nM.

Take `Cc1cc(Nc2nc(OC3CCOCC3)c3c(ccn3-c3ccnnc3)n2)sn1` [Example 102]: the 50% inhibitory concentration (IC50) was in the range of 100 to 1000 nM.

As for `Cc1cc(Nc2nc(OC3CCOCC3)c3c(ccn3-c3cncnc3)n2)sn1` [Example 103], the IC50 was in the range of 100 to 1000 nM.

The compound `Cc1cc(Nc2nc(OC3CCOCC3)c3c(ccn3-c3cccc4c3OCCO4)n2)sn1` [Example 104] showed an IC50 of 100 to 1000 nM.

As to `Cn1cc(Nc2nc(O[C@H]3CCOC3)c3c(ccn3-c3cnn(C)c3)n2)cn1` [Example 105, (S)-(1-methyl-1H-pyrazol-4-yl)-[5-(1-methyl-1H-pyrazol-4-yl)-4-(tetrahydrofuran-3-yloxy)-5H-pyrrolo[3,2-d]pyrimidin-2-yl]amine], the IC50 was not above 100 nM.

On to `Cn1cc(-n2ccc3nc(Nc4cn[nH]c4)nc(O[C@H]4CCOC4)c32)cn1` [Example 106], for which the 50% inhibitory concentration (IC50) is not above 100 nM.

As for `Cn1cc(-n2ccc3nc(Nc4cnn(CCF)c4)nc(O[C@H]4CCOC4)c32)cn1` [Example 107], the IC50 is not above 100 nM.

The compound `Cn1cc(-n2ccc3nc(Nc4cnn(CCO)c4)nc(O[C@H]4CCOC4)c32)cn1` [Example 108] gave a half-inhibitory concentration (IC50) not above 100 nM.

On to `Cn1cc(-n2ccc3nc(Nc4cnn(C5CCCCC5)c4)nc(O[C@H]4CCOC4)c32)cn1` [Example 109], for which the IC50 is 100 to 1000 nM.

In turn, `Cn1cc(-n2ccc3nc(Nc4cnn(C5CCOCC5)c4)nc(O[C@H]4CCOC4)c32)cn1` [Example 110] had an IC50 not above 100 nM.

`CN1CCC(n2cc(Nc3nc(O[C@H]4CCOC4)c4c(ccn4-c4cnn(C)c4)n3)cn2)CC1` [Example 111] displayed an IC50 not above 100 nM.

The compound `Cn1cc(-n2ccc3nc(Nc4cnn(-c5ccccc5)c4)nc(O[C@H]4CCOC4)c32)cn1` [Example 112] returned an IC50 of 100 to 1000 nM.

On to `Cn1cc(-n2ccc3nc(Nc4cnn(-c5ccncc5)c4)nc(O[C@H]4CCOC4)c32)cn1` [Example 113], for which the half-maximal inhibitory concentration (IC50) was not above 100 nM.

`Cn1cc(-n2ccc3nc(Nc4cnn(-c5cccnc5)c4)nc(O[C@H]4CCOC4)c32)cn1` [Example 114]: the half-inhibitory concentration (IC50) is not above 100 nM.

The compound `Cn1cc(-n2ccc3nc(Nc4cnoc4)nc(O[C@H]4CCOC4)c32)cn1` [Example 115] had a half-maximal inhibitory concentration (IC50) of 100 to 1000 nM.

With `Cn1cc(-n2ccc3nc(Nc4ccccc4)nc(O[C@H]4CCOC4)c32)cn1` [Example 116], the IC50 was 100 to 1000 nM.

As for `Cn1cc(-n2ccc3nc(Nc4cccnc4)nc(O[C@H]4CCOC4)c32)cn1` [Example 117], the IC50 was 1000 to 10000 nM.

For the compound `Cn1cc(-n2ccc3nc(Nc4ccc(N5CCOCC5)cc4)nc(O[C@H]4CCOC4)c32)cn1` [Example 118], the concentration for half-maximal inhibition (IC50) was 100 to 1000 nM.

The compound `Cn1cc(-n2ccc3nc(Nc4ccc(C(=O)N5CCOCC5)cc4)nc(O[C@H]4CCOC4)c32)cn1` [Example 119] gave a 50% inhibitory concentration (IC50) of 100 to 1000 nM.

(Values after US10562902B2, “IRAK4 inhibitor and use thereof” (BEIJING HANMI PHARMACEUTICAL CO., LTD., priority 2015, dated 2020).)
